Source: patent publication US10899738B2 (THE REGENTS OF THE UNIVERSITY OF MICHIGAN, priority 2016, dated 2021)
Like-named read-outs stand apart in the source and are kept apart here.

Legend:
[1] = tested on: MV4-11 cells; experiment: Mechanism of action studies, gene expression measured with qPCR in MV4-11 cells; type: cell-based
Description: (§1) MOLM-13 or MV4-11 cells were seeded in a 6-well plate at a density of 500,000 cells/well in 2 ml of culture medium and treated with either Cpd. No. 210 or Cpd. No. 366 at the concentrations as indicated. About 4 days after the treatments, cells were harvested and the expression of each gene was measured with qPCR.
as §1, with “500,000-800,000” for “500,000”, “366” for “210”, “215” for “366”, “40 hours” for “4 days”, “treatment,” for “treatments,”

[2] = tested on: MOLM-13 cells; experiment: Mechanism of action studies, gene expression measured with qPCR in MOLM-13 cells; type: cell-based
Description: as §1
as §1, with “MOLM-13” for “MOLM-13 or MV4-11”, “366” for “210”, “238” for “366”, “66 hours” for “4 days”, “treatment,” for “treatments,”
as §1, with “500,000-800,000” for “500,000”, “366” for “210”, “215” for “366”, “40 hours” for “4 days”, “treatment,” for “treatments,”

[3] = target: menin protein (Homo sapiens (Human), UniProt O00255); experiment: biochemical; type: binding; conditions: FP competitive binding; menin protein 4 nM, FAM-MM2 probe 2 nM; read-out: Menin Binding Affinity IC50
Outline: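 Competitive fluorescence polarization assay using FAM-labelled MLL1 peptide probe FAM-MM2 (2 nM final) preincubated with menin (4 nM final) in PBS with 0.02% bovine γ-globulin, 4% DMSO and 0.01% Triton X-100. Compounds were added and incubated 30 min at room temperature. IC50 came from nonlinear regression of competition curves, with Ki also derived.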

[4] = Cell growth inhibition, CellTiter-Glo Luminescent Cell Viability Assay; type: cell-based
Outline: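 Cells seeded at 2,000/well with serially diluted compound and cultured 4 days at 37 °C, 5% CO2. Viability read by CellTiter-Glo luminescence; IC50 derived from dose-response.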

[5] = 4 days of treatment, dose dependent
[6] = 66 hours of treatment, dose dependent

Chain of menin protein (O00255 whole entry): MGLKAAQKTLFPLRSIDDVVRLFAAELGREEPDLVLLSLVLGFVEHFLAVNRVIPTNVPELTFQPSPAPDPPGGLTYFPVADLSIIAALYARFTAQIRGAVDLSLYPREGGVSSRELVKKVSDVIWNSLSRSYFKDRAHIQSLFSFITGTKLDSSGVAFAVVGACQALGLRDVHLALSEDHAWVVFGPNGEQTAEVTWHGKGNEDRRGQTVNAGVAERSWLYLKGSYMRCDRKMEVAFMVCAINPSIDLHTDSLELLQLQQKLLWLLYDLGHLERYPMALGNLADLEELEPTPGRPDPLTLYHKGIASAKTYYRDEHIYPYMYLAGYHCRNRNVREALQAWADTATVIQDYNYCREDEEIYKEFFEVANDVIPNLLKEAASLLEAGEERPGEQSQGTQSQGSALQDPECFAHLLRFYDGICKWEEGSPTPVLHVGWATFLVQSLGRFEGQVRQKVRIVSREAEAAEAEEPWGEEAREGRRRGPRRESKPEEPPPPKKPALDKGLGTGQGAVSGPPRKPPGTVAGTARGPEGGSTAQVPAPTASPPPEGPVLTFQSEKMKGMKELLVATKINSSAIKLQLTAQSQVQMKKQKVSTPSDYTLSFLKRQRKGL

SMILES: CNC(=O)O[C@H]1CCC[C@@H]1C(Cn1ccnc1)(c1ccccc1)C1CCN(CC2CN(c3ccc(C#N)cc3)C2)CC1 (mixture of isomers) [Cpd. No. 366, rac-(1S,2R)-2-(1-(1-((1-(4-cyanophenyl)azetidin-3-yl)methyl)piperidin-4-yl)-2-(1H-imidazol-1-yl)-1-phenylethyl)cyclopentyl methylcarbamate]
- HOX7 gene expression ([1]; 40 hours of treatment): Neither Cpd. No. 366 nor Cpd. No. 215 showed an effect
- HOX10 gene expression ([1]; 40 hours of treatment): significantly reduced
- HOX11 gene expression ([1]; 40 hours of treatment): significantly reduced
- MEIS1 gene expression ([1]; 40 hours of treatment): reduced
- HOX7 gene expression ([1]; 4 days of treatment): not as robust as those of HOX10
- MEIS1 gene expression ([1]; 4 days of treatment): reduced
- MYB gene expression ([1]; 4 days of treatment): no effect
- HOX10 gene expression [1, 5]: reduced
- MEIS1 gene expression ([2]; 40 hours of treatment): reduced
- all the tested HOX genes (HOX7, HOX9, HOX10, HOX11) expression ([2]; 40 hours of treatment, dose dependent): reduces
- ITGAM gene expression ([2]; 66 hours of treatment): not effect
- MEIS1 gene expression ([2]; 66 hours of treatment): reduced
- HOX7 gene expression [2, 6]: reduced
- HOX10 gene expression [2, 6]: reduced
- MEIS1 gene expression ([2]; 4 days of treatment): reduced
- HOX7 gene expression [2, 5]: reduced
- HOX10 gene expression [2, 5]: reduced
- MYB gene expression ([2]; 4 days of treatment, high concentration): may reduce
- IC50 [3]: 9 nM
- IC50 ([4]; MOLM-13, 96 h, read-out: Cell Growth Inhibition IC50 (μM) MOLM13): 0.14 µM
- IC50 ([4]; MV4-11, 96 h, read-out: Cell Growth Inhibition IC50 (μM) MV4, 11): 0.035 µM
